Results from US10508109B2 (priority 2015, dated 2019).
pIC50: −log10 of the molar value. Structures can show the parent of a compound that is named as a salt. Where two headings read alike, the source gives them in different places.

Legend:
A549 = assay: Cell-based assay, anti-proliferative activity (Cell Counting Kit-8, 72 hours); details: Homo sapiens, read-out: A549 IC50
Summary of the method: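 Growth read-out after inhibitor treatment of plated cells; potency expressed as IC50.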

SUV39H2 = SUV39H2 (Homo sapiens (Human), UniProt Q9H5I1); assay: biochemical; assay type: biochemical; details: 3H-SAM 100 nM, H3 Histone Peptide 350 nM, room temperature 3 hours
SUV39H2, sequence (Q9H5I1 whole entry): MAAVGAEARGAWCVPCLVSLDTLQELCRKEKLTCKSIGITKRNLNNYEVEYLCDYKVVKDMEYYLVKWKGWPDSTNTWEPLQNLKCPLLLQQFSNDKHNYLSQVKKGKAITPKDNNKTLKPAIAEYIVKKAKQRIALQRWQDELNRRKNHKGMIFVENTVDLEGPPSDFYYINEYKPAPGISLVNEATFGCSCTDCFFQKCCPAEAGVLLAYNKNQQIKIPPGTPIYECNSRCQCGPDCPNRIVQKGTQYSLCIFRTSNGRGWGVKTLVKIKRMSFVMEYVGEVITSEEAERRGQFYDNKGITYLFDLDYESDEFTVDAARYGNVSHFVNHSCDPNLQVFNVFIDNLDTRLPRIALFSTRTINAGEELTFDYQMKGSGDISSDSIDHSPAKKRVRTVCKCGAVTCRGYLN
Summary of the method: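 Scintillation proximity format: reactions were halted with streptavidin SPA beads (50 μg/well final) after 3 h at room temperature with enzyme dosed by lot-specific activity.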

[1] = A549 cells, 72 hours exposure, Cell Counting Kit-8

Compound | pIC50 (A549; [1]) | pIC50 (SUV39H2) | pIC50 (A549; A549, 72 h)
COc1cc(OC)c(-c2cn3ccc(N4CCN(c5cnc(N6CCN(S(=O)(=O)C7CC7)CC6)nc5)CC4)cc3n2)cc1Cl [Example 369, 2-(5-chloro-2,4-dimethoxyphenyl)-7-(4-(2-(4-(cyclopropylsulfonyl)piperazin-1-yl)pyrimidin-5-yl)piperazin-1-yl)imidazo[1,2-a]pyridine 2,2,2-trifluoroacetate] | 6.20 | 7.24 | –
COc1cc(OC)c(-c2cn3ccc(N4CCN(c5nccc(N6CCN(C)CC6)n5)CC4)cc3n2)cc1Cl [Example 370, 2-(5-chloro-2,4-dimethoxyphenyl)-7-(4-(4-(4-methylpiperazin-1-yl)pyrimidin-2-yl)piperazin-1-yl)imidazo[1,2-a]pyridine] | – | 7.92 | 6.14
COc1cc(OC)c(-c2cn3ccc(N[C@H]4CC[C@@H](NCc5cccc(C#N)c5)CC4)cc3n2)cc1Cl [Example 371, 3-(((cis-4-((2-(5-chloro-2,4-dimethoxyphenyl)imidazo[1,2-a]pyridin-7-yl)amino)cyclohexyl)amino)methyl)benzonitrile] | 6.16 | 7.79 | –
CNC1CCN(c2nccc(N3CCN(c4ccn5cc(-c6cc(Cl)c(OC)cc6OC)nc5c4)CC3)n2)C1 (stereo not drawn) [Example 372, 1-(4-(4-(2-(5-chloro-2,4-dimethoxyphenyl)imidazo[1,2-a]pyridine-7-yl)piperazin-1-yl)pyrimidin-2-yl)-N-methylpyrrolidin-3-amine trihydrochloride] | – | 7.74 | 6.15
COc1cc(OC)c(-c2cn3ccc(N4CCN(c5nccc(N6CCN(C(C)=O)CC6)n5)CC4)cc3n2)cc1Cl [Example 373, 1-(4-(2-(4-(2-(5-chloro-2,4-dimethoxyphenyl)imidazo[1,2-a]pyridin-7-yl)piperazin-1-yl)pyrimidin-4-yl)piperazin-1-yl)ethanone 2,2,2-trifluoroacetate] | 6.19 | 7.87 | –
COc1cc(OC)c(-c2cn3ccc(N4CCC(Nc5ccncn5)CC4)cc3n2)cc1Cl [Example 374, N-(1-(2-(5-chloro-2,4-dimethoxyphenyl)imidazo[1,2-a]pyridin-7-yl)piperidin-4-yl)pyrimidin-4-amine] | 6.18 | 7.50 | –
COc1cc(OC)c(-c2cn3ccc(N4CCN(c5cc(N6CCNCC6)ncn5)CC4)cc3n2)cc1Cl [Example 375, 2-(5-chloro-2,4-dimethoxyphenyl)-7-(4-(6-(piperazin-1-yl)pyrimidin-4-yl)piperazin-1-yl)imidazo[1,2-a]pyridine] | 6.16 | 7.64 | –
COc1cc(OC)c(-c2cn3ccc(N4CCN(c5nccc(N6CCCC(O)C6)n5)CC4)cc3n2)cc1Cl (stereo not drawn) [Example 376, 1-(2-(4-(2-(5-chloro-2,4-dimethoxyphenyl)imidazo[1,2-a]pyridin-7-yl)piperazin-1-yl)pyrimidin-4-yl)piperidin-3-ol] | 6.01 | 7.18 | –
COc1cc(OC)c(-c2cn3ccc(N4CCN(c5cc(N6CCN(C)CC6)ncn5)CC4)cc3n2)cc1Cl [Example 377, 2-(5-chloro-2,4-dimethoxyphenyl)-7-(4-(6-(4-methylpiperazin-1-yl)pyrimidin-4-yl)piperazin-1-yl)imidazo[1,2-a]pyridine dihydrochloride] | – | 7.84 | 6.18
COc1cc(OC)c(-c2cn3ccc(N4CCN(c5cnc(N6CCC(N)C6)nc5)CC4)cc3n2)cc1Cl (stereo not drawn) [Example 378, 1-(5-(4-(2-(5-chloro-2,4-dimethoxyphenyl)imidazo[1,2-a]pyridin-7-yl)piperazin-1-yl)pyrimidin-2-yl)pyrrolidin-3-amine dihydrochloride] | – | 7.64 | 6.17
COc1cc(OC)c(-c2cn3ccc(N4CCN(c5nc(N)nc(N6CCOCC6)n5)CC4)cc3n2)cc1Cl [Example 379, 4-(4-(2-(5-chloro-2,4-dimethoxyphenyl)imidazo[1,2-a]pyridin-7-yl)piperazin-1-yl)-6-morpholino-1,3,5-triazin-2-amine] | 6.38 | 7.57 | –
COc1ccc(CN[C@H]2CC[C@@H](Nc3ccn4cc(-c5cc(Cl)c(OC)cc5OC)nc4c3)CC2)cc1 [Example 380, cis-N^1-(2-(5-chloro-2,4-dimethoxyphenyl)imidazo[1,2-a]pyridin-7-yl)-N^4-(4-methoxybenzyl)cyclohexane-1,4-diamine bis(2,2,2-trifluoroacetate)] | 6.22 | 7.48 | –
COc1cc(OC)c(-c2cn3ccc(N4CCN(c5cccc(N6CCN(C)CC6)n5)CC4)cc3n2)cc1Cl [Example 381, 2-(5-chloro-2,4-dimethoxyphenyl)-7-(4-(6-(4-methylpiperazin-1-yl)pyridin-2-yl)piperazin-1-yl)imidazo[1,2-a]pyridine] | 6.11 | 7.37 | –
COc1cc(OC)c(-c2cn3ccc(N4CCN(c5nccc(N6CCN(C(=O)Cc7ccccc7)CC6)n5)CC4)cc3n2)cc1Cl [Example 382, 1-(4-(2-(4-(2-(5-chloro-2,4-dimethoxyphenyl)imidazo[1,2-a]pyridin-7-yl)piperazin-1-yl)pyrimidin-4-yl)piperazin-1-yl)-2-phenylethanone dihydrochloride] | – | 7.50 | 6.17
COc1cc(OC)c(-c2cn3ccc(N4CCCN(c5cncnc5)CC4)cc3n2)cc1Cl [Example 383, 2-(5-chloro-2,4-dimethoxyphenyl)-7-(4-(pyrimidin-5-yl)-1,4-diazepan-1-yl)imidazo[1,2-a]pyridine] | 6.06 | 7.86 | –
COc1cc(OC)c(-c2cn3ccc(N4CCN(c5cc(N6CCOCC6)nc(N)n5)CC4)cc3n2)cc1Cl [Example 384, 4-(4-(2-(5-chloro-2,4-dimethoxyphenyl)imidazo[1,2-a]pyridin-7-yl)piperazin-1-yl)-6-morpholinopyrimidin-2-amine] | 6.03 | 7.96 | –
COc1cc(OC)c(-c2cn3ccc(N4CCN(c5cc(N6CCCC6)nc(N)n5)CC4)cc3n2)cc1Cl [Example 385, 4-(4-(2-(5-chloro-2,4-dimethoxyphenyl)imidazo[1,2-a]pyridin-7-yl)piperazin-1-yl)-6-(pyrrolidin-1-yl)pyrimidin-2-amine] | 6.18 | 7.42 | –
COc1cc(OC)c(-c2cn3ccc(N4CC[C@H](NCc5ccc(NC(=O)OC(C)(C)C)cc5)C4)cc3n2)cc1Cl [Example 386, (S)-tert-butyl (4-(((1-(2-(5-chloro-2,4-dimethoxyphenyl)imidazo[1,2-a]pyridin-7-yl)pyrrolidin-3-yl)amino)methyl)phenyl)carbamate] | 6.14 | 7.61 | –
COc1cc(OC)c(-c2cn3cnc(N4CC[C@H](NC(=O)OC(C)(C)C)C4)cc3n2)cc1Cl [Example 387, (S)-tert-butyl (1-(2-(5-chloro-2,4-dimethoxyphenyl)imidazo[1,2-c]pyrimidin-7-yl)pyrrolidin-3-yl)carbamate] | 5.80 | 7.48 | –
COc1cc(OC)c(-c2cn3ccc(N4CCCN(Cc5ccncc5)CC4)cc3n2)cc1Cl [Example 388, 2-(5-chloro-2,4-dimethoxyphenyl)-7-(4-(pyridin-4-ylmethyl)-1,4-diazepan-1-yl)imidazo[1,2-a]pyridine dihydrochloride] | – | 8.30 | 6.25
COc1cc(OC)c(-c2cn3ccc(N4CCN(c5cc(N(C)C)nc(N)n5)CC4)cc3n2)cc1Cl [Example 389, 6-(4-(2-(5-chloro-2,4-dimethoxyphenyl)imidazo[1,2-a]pyridin-7-yl)piperazin-1-yl)-N^4,N^4-dimethylpyrimidine-2,4-diamine dihydrochloride] | – | 7.41 | 6.12
COc1cc(OC)c(-c2cn3cnc(N4CCN(S(=O)(=O)C5CC5)CC4)cc3n2)cc1Cl [Example 390, 2-(5-chloro-2,4-dimethoxyphenyl)-7-(4-(cyclopropylsulfonyl)piperazin-1-yl)imidazo[1,2-c]pyrimidine] | 6.41 | 7.00 | –
COc1cc(OC)c(-c2cn3ccc(N[C@H]4C[C@H]5CC[C@@H](C4)N5C(=O)OC(C)C)cc3n2)cc1Cl [Example 391, (1R,3r,5S)-isopropyl 3-((2-(5-chloro-2,4-dimethoxyphenyl)imidazo[1,2-a]pyridin-7-yl)amino)-8-azabicyclo[3.2.1]octane-8-carboxylate] | 6.00 | 7.10 | –
COc1cc(OC)c(-c2cn3ccc(N[C@H]4CC[C@@H](NC(=O)c5ccccc5O)CC4)cc3n2)cc1Cl [Example 392, N-(cis-4-((2-(5-chloro-2,4-dimethoxyphenyl)imidazo[1,2-a]pyridin-7-yl)amino)cyclohexyl)-2-hydroxybenzamide trifluoroacetate] | 6.17 | 7.28 | –
COc1cc(OC)c(-c2cn3ccc(N4CC[C@H](NCc5ccc(N(C)C(=O)OC(C)(C)C)cc5)C4)cc3n2)cc1Cl [Example 394, (S)-tert-butyl (4-(((1-(2-(5-chloro-2,4-dimethoxyphenyl)imidazo[1,2-a]pyridin-7-yl)pyrrolidin-3-yl)amino)methyl)phenyl)(methyl)carbamate] | 6.10 | 7.99 | –
COc1cc(OC)c(-c2cn3ccc(N4CCN(c5ccnc(NCCCO)n5)CC4)cc3n2)cc1Cl [Example 395, 3-((4-(4-(2-(5-chloro-2,4-dimethoxyphenyl)imidazo[1,2-a]pyridine-7-yl)piperazin-1-yl)pyrimidin-2-yl)amino)propan-1-ol] | 6.11 | 7.85 | –
CNC1CCN(c2ncc(N3CCN(c4ccn5cc(-c6cc(Cl)c(OC)cc6OC)nc5c4)CC3)cn2)CC1 [Example 396, 1-(5-(4-(2-(5-chloro-2,4-dimethoxyphenyl)imidazo[1,2-a]pyridin-7-yl)piperazin-1-yl)pyrimidin-2-yl)-N-methylpiperidin-4-amine dihydrochloride] | – | 7.84 | 6.11
